Results from patent US20150045391A1, “FILANESIB COMBINED WITH POMALIDOMIDE DISPLAYS ENHANCED ANTI-TUMOR ACTIVITY” (Array BioPharma Inc., priority 2013, published 2015).

Tests used:
RPMI-8226 xenografts [1] = assay: RPMI-8226 xenograft tumor growth inhibition (Example 2); format: in vivo, mice; settings: for % Complete Response / % Max Body Weight Loss: RPMI-8226, filanesib 12.5 mg/kg IP days 1 and 2, pomalidomide 10 mg/kg IP QD days 1-21; for % Complete Response: SCID-beige mice, no palpable tumor for 2 consecutive measurements; for cure rate: RPMI-8226 model, filanesib 12.5 mg/kg IP D1, 2, pomalidomide 10 mg/kg IP QD, cure = no palpable tumor 100 days from study initiation
Procedure: (§1) Female SCID-beige mice were inoculated subcutaneously with 10×10^6 H929 (FIG. 2), RPMI-8226 (FIG. 3) or JJN3 (FIG. 4) tumor cells in 50% 1× phosphate buffered saline (“PBS”) 50% Matrigel™ (100 μL). […] Tumor size and animal body weight were measured on the days indicated in FIGS. 2-4 over the course of each study. Tumor volume was calculated using the formula, volume=[…]. Percent complete response indicates an animal has no palapable tumor for 2 consecutive measurements.

H929 xenografts = assay: H929 xenograft tumor growth inhibition (Example 2); format: in vivo, mice; settings: for % Complete Response: SCID-beige mice, filanesib 12.5 mg/kg IP days 1 and 2, pomalidomide 10 mg/kg IP QD days 1-21, no palpable tumor for 2 consecutive measurements; for % Max Body Weight Loss: filanesib 12.5 mg/kg IP days 1 and 2, pomalidomide 10 mg/kg IP QD days 1-21
Procedure: as §1

[2] = Hematology profiles and body weight in naive CD-1 mice (Example 3); format: in vivo; settings: for neutropenia / neutrophil loss, in words: hematology analysis in mice
Procedure: Naïve male CD-1 mice were administered saline vehicle (10 mL/kg, IP, days 1 and 2), filanesib (12.5 mg/kg, IP, days 1 and 2) and/or pomalidomide (1 or 10 mg/kg, IP, QD, days 1-14). Hematology parameters (platelets FIG. 5, lymphocytes FIG. 6, neutrophils FIG. 7) were measured on days 5 and 12, and animal body weight (FIG. 8) was measured on days 1, 3, 5, 8, 10 and 12. For hematology analysis, blood was collected 12 hours following the final dose via cardiac puncture, […] was prepared, and hematology profiles were measured on Hemavet 950FS analyzer.

[3] = Predicted in vitro IC50 of filanesib
[4] = Plasma exposure after a single IP dose of filanesib and/or pomalidomide (Example 1); format: in vivo; settings: mouse, male CD-1 mice
Procedure: Naïve male CD-1 mice were administered a single intraperitoneal (“IP”) bolus dose of filanesib (12.5 mg/kg) and/or pomalidomide (10 mg/kg). Blood was collected at 4, 8, 12, 16, 20 and 24 hours via cardiac puncture, ethylenediaminetetraacetic acid (“EDTA”) plasma was prepared, and concentration of plasma analytes were measured.

[5] = Dose limiting toxicity of filanesib; settings: in vivo
JJN3 xenografts = assay: JJN3 xenograft tumor growth inhibition (Example 2); format: in vivo, mice; settings: for % Complete Response: SCID-beige mice, filanesib 12.5 mg/kg IP days 1 and 2, pomalidomide 10 mg/kg IP QD days 1-19, no palpable tumor for 2 consecutive measurements; for % Max Body Weight Loss: filanesib 12.5 mg/kg IP days 1 and 2, pomalidomide 10 mg/kg IP QD days 1-19
Procedure: as §1

RPMI-8226 xenografts [6] = assay: RPMI-8226 dose ranging xenograft (Example 4); format: in vivo, mice; settings: for % Cure Rate: no palpable tumor 158 days from study start
Procedure: Female SCID-Beige mice were inoculated subcutaneously with 10×10^6 RPMI-8226 tumor cells in 50% 1×PBS 50% Matrigel™ (100 μL). […] Tumor size and animal body weight were measured on the indicated days over the course of each study. Tumor volume was calculated using the formula, volume=[…]. Percent cure rate indicates an animal has no palpable tumor 158 days from study start.

[7] = Day 5, filanesib 12.5 mg/kg IP days 1 and 2 and/or pomalidomide 1 mg/kg IP QD days 1-14
[8] = Day 12, filanesib 12.5 mg/kg IP days 1 and 2 and/or pomalidomide 1 mg/kg IP QD days 1-14
[9] = filanesib 12.5 mg/kg IP days 1 and 2 and/or pomalidomide 1 mg/kg IP QD days 1-14
[10] = filanesib in plasma, single IP bolus filanesib 12.5 mg/kg alone or with pomalidomide 10 mg/kg
[11] = filanesib 7.5 mg/kg IP days 1 and 2 and/or pomalidomide 5 mg/kg IP QD days 1-21
[12] = filanesib 12.5 mg/kg IP days 1 and 2 and/or pomalidomide 10 mg/kg IP QD days 1-21
[13] = Day 5, pomalidomide 10 mg/kg IP QD days 1-14, alone or with filanesib 12.5 mg/kg IP days 1 and 2
[14] = Day 12, pomalidomide 10 mg/kg IP QD days 1-14, alone or with filanesib 12.5 mg/kg IP days 1 and 2
[15] = pomalidomide in plasma, single IP bolus pomalidomide 10 mg/kg alone or with filanesib 12.5 mg/kg

SMILES | % Complete Response (RPMI-8226 xenografts [1]) | % Max Body Weight Loss (RPMI-8226 xenografts [1]) | cure rate (RPMI-8226 xenografts [1]) | % Complete Response (H929 xenografts) | % Max Body Weight Loss (H929 xenografts) | % Decrease in Cell Counts from Vehicle, Lymphocytes [2, 7] | % Decrease in Cell Counts from Vehicle, Neutrophils [2, 7] | % Decrease in Cell Counts from Vehicle, Platelets [2, 7] | % Decrease in Cell Counts from Vehicle, Lymphocytes [2, 8] | % Decrease in Cell Counts from Vehicle, Neutrophils [2, 8] | % Decrease in Cell Counts from Vehicle, Platelets [2, 8] | % Max Body Weight Loss [2, 9] | neutropenia / neutrophil loss, in words [2] | % Complete Response (JJN3 xenografts) | % Max Body Weight Loss (JJN3 xenografts) | % Max Body Weight Loss (RPMI-8226 xenografts [6]; [11]) | % Cure Rate (RPMI-8226 xenografts [6]; [11]) | % Max Body Weight Loss (RPMI-8226 xenografts [6]; [12]) | % Cure Rate (RPMI-8226 xenografts [6]; [12]) | further results
CON(C)C(=O)N1N=C(c2cc(F)ccc2F)S[C@@]1(CCCN)c1ccccc1.Cl [filanesib, (S)-2-(3-aminopropyl)-5-(2,5-difluorophenyl)-N-methoxy-N-methyl-2-phenyl-1,3,4-thiadiazole-3(2H)-carboxamide hydrochloride] | 50% | 5.3% | 0% | 0% | 8.9% | 34% | 69% | 9% | 0% | 0% | 0% | 0% | caused neutropenia | 0% | 6.6% | 3.7% | 0% | 8.0% | 0% | predicted in vitro IC50 [3]: about 0.2 ng/mL; AUC(0-t) [4, 10]: 3090 ng·h/mL; Cmax [4, 10]: 1660 ng/mL; Tmax [4, 10]: 4.98 min; major dose limiting toxicity (DLT) [5]: neutropenia
Nc1cccc2c1C(=O)N(C1CCC(=O)NC1=O)C2=O (centres unmarked) [pomalidomide] | 12.5% | 0.9% | 0% | 28.5% | 4.4% | 9% | 27% | 8% | 0% | 0% | 0% | 0% | caused neutropenia | 0% | 0% | 0.5% | 0% | 1.4% | 0% | % Decrease in Cell Counts from Vehicle, Lymphocytes [2, 13]: 4%; % Decrease in Cell Counts from Vehicle, Neutrophils [2, 13]: 21%; % Decrease in Cell Counts from Vehicle, Platelets [2, 13]: 10%; % Decrease in Cell Counts from Vehicle, Lymphocytes [2, 14]: 0%; % Decrease in Cell Counts from Vehicle, Neutrophils [2, 14]: 0%; % Decrease in Cell Counts from Vehicle, Platelets [2, 14]: 0%; % Max Body Weight Loss ([2]; pomalidomide 10 mg/kg IP QD days 1-14, alone or with filanesib 12.5 mg/kg IP days 1 and 2): 0%; AUC(0-t) [4, 15]: 3080 ng·h/mL; Cmax [4, 15]: 956 ng/mL; Tmax [4, 15]: 4.98 min
